Values quoted from earlier work in article PMC5879685 (Proceedings of the National Academy of Sciences of the …, 2018).

Structure (SMILES) | Effect on CNGC (CNGC) | Effect on PKG (PKG)
Nc1nc2c(ncn2[C@@H]2O[C@@H]3COP(O)(=S)O[C@H]3[C@H]2O)c(=O)[nH]1 (single isomer, unassigned) [B, Guanosine-3′,5′-cyclic monophosphorothioate, RP-isomer] | + | −
Nc1nc2c(nc(Br)n2[C@@H]2O[C@@H]3COP(O)(=S)O[C@H]3[C@H]2O)c(=O)[nH]1 (single isomer, unassigned) [C, 8-bromoguanosine-3′,5′-cyclic monophosphorothioate, RP-isomer] | + | −
Nc1nc2c(ncn2[C@@H]2O[C@@H]3COP(=O)(O)O[C@H]3[C@H]2O)c(=O)[nH]1 [Compound A, Guanosine-3′,5′-cyclic monophosphate] | + | +
